Experimental findings from patent US20140194374A1, “Anthelmintic Formulations and Treatments” (VIRBAC, priority 2011, published 2014) are described below.

The test system of this experiment is ML resistant Cooperia strains. Particulars: doses ¼ to ⅓rd lower than the standard label dose (7.5 mg/kg).

Method: Individual faecal samples (for individual egg count and group larval culture) were collected as per protocol at 7 days intervals at Days 7, 14, 21, 28, 35, 42 and 49. […] Weighing was performed at the beginning, middle, and end of 49 day trial.

As for `c1ccc([C@H]2CN3CCSC3=N2)cc1` [levamisole], the “Control of ML resistant Cooperia strains” value was 100%.
